Reference: patent publication US9457008B2, “Joint product comprising synephrine and topiramate” (Institute of Pharmacology and Toxicology Academy of …, priority 2012, dated 2016)

Assay: Effects of different dissolution media on release rate of sustained-release pellet of topiramate
Format: physicochemical
Conditions: 0.1 mol/L HCl (pH1.2), 37° C.
Procedure: In order to verify whether acidic, basic solvent media would influence the release rate of the sustained-release pellets of the present invention, 0.1 mol/L HCl (pH1.2) was prepared as artificial gastric fluid, […] phosphate buffer (pH6.8) was prepared as artificial intestinal fluid, and these media and water (500 ml) were used as release media, rotation speed was 100 rpm, 37° C. Samples (5 ml, supplemented with equivalent volume of media at the meantime) were taken at 1, 2, 4, 8, 12, 16, 20, 24 h, filtrated, and the subsequent filtrates were used as test solutions. High performance liquid chromatography (Appendix V D, Part II of Chinese Pharmacopoeia, 2010 Edition) was used, octylsilane-bonded silica gel was used as packing agent, 50% methanol was mobile phase, differential refractive detector was used, flow rate was 1.5 ml per minute. 200 μl of test solution was taken, injected in liquid chromatograph, the peak area of topiramate as main drug was recorded; topiramate was separately taken as control sample and measured by the same method, and accumulative release percentages of drug at different time points were calculated by external standard method. The release profile of sample of Batch 1 in Example 16 (2) in the above media were drawn, and the results were shown in FIG. 4.

For `CC1(C)O[C@@H]2[C@@H](CO[C@@]3(COS(N)(=O)=O)OC(C)(C)O[C@@H]23)O1` [topiramate, 2,3,4,5-bis-O-(1-methylethylene)-β-D-fructopyranose sulfamate], which “stability in pH1.2 artificial gastric fluid” value is on record?
The value was “unstable”.
